What was measured:
Assay type in all cases: functional
Details in all cases: read-out: GI
NCI-H522 = assay: Growth inhibition of human NCI-H522 cells at 10 uM incubated for 48 hrs by sulforhodamine B assay relative to control
UACC-62 = assay: Growth inhibition of human UACC-62 cells at 10 uM incubated for 48 hrs by sulforhodamine B assay relative to control
CCRF-CEM = assay: Growth inhibition of human CCRF-CEM cells at 10 uM incubated for 48 hrs by sulforhodamine B assay relative to control
SW-620 = assay: Growth inhibition of human SW-620 cells at 10 uM incubated for 48 hrs by sulforhodamine B assay relative to control
HCT-116 = assay: Growth inhibition of human HCT-116 cells at 10 uM incubated for 48 hrs by sulforhodamine B assay relative to control
BT-549 = assay: Growth inhibition of human BT-549 cells at 10 uM incubated for 48 hrs by sulforhodamine B assay relative to control
SN12C = assay: Growth inhibition of human SN12C cells at 10 uM incubated for 48 hrs by sulforhodamine B assay relative to control
MOLT-4 = assay: Growth inhibition of human MOLT-4 cells at 10 uM incubated for 48 hrs by sulforhodamine B assay relative to control
ACHN = assay: Growth inhibition of human ACHN cells at 10 uM incubated for 48 hrs by sulforhodamine B assay relative to control
MDA-MB-435 = assay: Growth inhibition of human MDA-MB-435 cells at 10 uM incubated for 48 hrs by sulforhodamine B assay relative to control
T47D = assay: Growth inhibition of human T47D cells at 10 uM incubated for 48 hrs by sulforhodamine B assay relative to control
NCI-H322M = assay: Growth inhibition of human NCI-H322M cells at 10 uM incubated for 48 hrs by sulforhodamine B assay relative to control
SNB-19 = assay: Growth inhibition of human SNB-19 cells at 10 uM incubated for 48 hrs by sulforhodamine B assay relative to control
SK-MEL-5 = assay: Growth inhibition of human SK-MEL-5 cells at 10 uM incubated for 48 hrs by sulforhodamine B assay relative to control
RXF 393 = assay: Growth inhibition of human RXF 393 cells at 10 uM incubated for 48 hrs by sulforhodamine B assay relative to control
HOP-62 = assay: Growth inhibition of human HOP-62 cells at 10 uM incubated for 48 hrs by sulforhodamine B assay relative to control
SK-MEL-28 = assay: Growth inhibition of human SK-MEL-28 cells at 10 uM incubated for 48 hrs by sulforhodamine B assay relative to control
RPMI-8226 = assay: Growth inhibition of human RPMI-8226 cells at 10 uM incubated for 48 hrs by sulforhodamine B assay relative to control
MDA-MB-231 = assay: Growth inhibition of human MDA-MB-231 cells at 10 uM incubated for 48 hrs by sulforhodamine B assay relative to control
HL-60(TB) = assay: Growth inhibition of human HL-60(TB) cells at 10 uM incubated for 48 hrs by sulforhodamine B assay relative to control
NCI-H226 = assay: Growth inhibition of human NCI-H226 cells at 10 uM incubated for 48 hrs by sulforhodamine B assay relative to control
IGROV-1 = assay: Growth inhibition of human IGROV-1 cells at 10 uM incubated for 48 hrs by sulforhodamine B assay relative to control
NCI/ADR-RES = assay: Growth inhibition of human NCI/ADR-RES cells at 10 uM incubated for 48 hrs by sulforhodamine B assay relative to control
Malme-3M = assay: Growth inhibition of human Malme-3M cells at 10 uM incubated for 48 hrs by sulforhodamine B assay relative to control
DU-145 = assay: Growth inhibition of human DU-145 cells at 10 uM incubated for 48 hrs by sulforhodamine B assay relative to control
PC-3 = assay: Growth inhibition of human PC-3 cells at 10 uM incubated for 48 hrs by sulforhodamine B assay relative to control
HOP-92 = assay: Growth inhibition of human HOP-92 cells at 10 uM incubated for 48 hrs by sulforhodamine B assay relative to control
M14 = assay: Growth inhibition of human M14 cells at 10 uM incubated for 48 hrs by sulforhodamine B assay relative to control
A549 = assay: Growth inhibition of human A549/ATCC cells at 10 uM incubated for 48 hrs by sulforhodamine B assay relative to control
MDA-MB-468 = assay: Growth inhibition of human MDA-MB-468 cells at 10 uM incubated for 48 hrs by sulforhodamine B assay relative to control
OVCAR-8 = assay: Growth inhibition of human OVCAR-8 cells at 10 uM incubated for 48 hrs by sulforhodamine B assay relative to control
K562 = assay: Growth inhibition of human K562 cells at 10 uM incubated for 48 hrs by sulforhodamine B assay relative to control
HCT-15 = assay: Growth inhibition of human HCT-15 cells at 10 uM incubated for 48 hrs by sulforhodamine B assay relative to control
CAKI-1 = assay: Growth inhibition of human CAKI-1 cells at 10 uM incubated for 48 hrs by sulforhodamine B assay relative to control
SK-OV-3 = assay: Growth inhibition of human SK-OV-3 cells at 10 uM incubated for 48 hrs by sulforhodamine B assay relative to control
U-251 = assay: Growth inhibition of human U-251 cells at 10 uM incubated for 48 hrs by sulforhodamine B assay relative to control
NCI-H460 = assay: Growth inhibition of human NCI-H460 cells at 10 uM incubated for 48 hrs by sulforhodamine B assay relative to control
UO-31 = assay: Growth inhibition of human UO-31 cells at 10 uM incubated for 48 hrs by sulforhodamine B assay relative to control
HCC 2998 = assay: Growth inhibition of human HCC 2998 cells at 10 uM incubated for 48 hrs by sulforhodamine B assay relative to control
TK-10 = assay: Growth inhibition of human TK-10 cells at 10 uM incubated for 48 hrs by sulforhodamine B assay relative to control
OVCAR-5 = assay: Growth inhibition of human OVCAR-5 cells at 10 uM incubated for 48 hrs by sulforhodamine B assay relative to control
KM12 = assay: Growth inhibition of human KM12 cells at 10 uM incubated for 48 hrs by sulforhodamine B assay relative to control
HT-29 = assay: Growth inhibition of human HT-29 cells at 10 uM incubated for 48 hrs by sulforhodamine B assay relative to control
SNB-75 = assay: Growth inhibition of human SNB-75 cells at 10 uM incubated for 48 hrs by sulforhodamine B assay relative to control

O=C(CN1CCCCC1)Nc1ccc(-c2nc3ccccc3s2)cc1
inhibition of growth at 10 µM (NCI-H522): -4.5% | inhibition of growth at 10 µM (UACC-62): 5.84% | inhibition of growth at 10 µM (CCRF-CEM): 10.4% | inhibition of growth at 10 µM (SW-620): -9.04% | inhibition of growth at 10 µM (HCT-116): 5.5% | inhibition of growth at 10 µM (BT-549): 1.67% | inhibition of growth at 10 µM (SN12C): 6.04% | inhibition of growth at 10 µM (MOLT-4): 14.3% | inhibition of growth at 10 µM (ACHN): -5.42% | inhibition of growth at 10 µM (MDA-MB-435): -6.67% | inhibition of growth at 10 µM (T47D): 17.8% | inhibition of growth at 10 µM (NCI-H322M): -11.9% | inhibition of growth at 10 µM (SNB-19): -0.02% | inhibition of growth at 10 µM (SK-MEL-5): 9.16% | inhibition of growth at 10 µM (RXF 393): 13% | inhibition of growth at 10 µM (HOP-62): 7.87% | inhibition of growth at 10 µM (SK-MEL-28): -9.51% | inhibition of growth at 10 µM (RPMI-8226): 11.3% | inhibition of growth at 10 µM (MDA-MB-231): 41.5% | inhibition of growth at 10 µM (HL-60(TB)): 15.8% | inhibition of growth at 10 µM (NCI-H226): 11.3% | inhibition of growth at 10 µM (IGROV-1): -10.3% | inhibition of growth at 10 µM (NCI/ADR-RES): 6.26% | inhibition of growth at 10 µM (Malme-3M): -9.17% | inhibition of growth at 10 µM (DU-145): 0.74% | inhibition of growth at 10 µM (PC-3): 15.5% | inhibition of growth at 10 µM (HOP-92): 44.5% | inhibition of growth at 10 µM (M14): -5.76% | inhibition of growth at 10 µM (A549): 5.89% | inhibition of growth at 10 µM (MDA-MB-468): 73.7% | inhibition of growth at 10 µM (OVCAR-8): -3.73% | inhibition of growth at 10 µM (K562): 49.8% | inhibition of growth at 10 µM (HCT-15): 28% | inhibition of growth at 10 µM (CAKI-1): 9.3% | inhibition of growth at 10 µM (SK-OV-3): 4.61% | inhibition of growth at 10 µM (U-251): 22.8% | inhibition of growth at 10 µM (NCI-H460): -1.42% | inhibition of growth at 10 µM (UO-31): 6.94% | inhibition of growth at 10 µM (HCC 2998): 9.72% | inhibition of growth at 10 µM (TK-10): -14.8% | inhibition of growth at 10 µM (OVCAR-5): -4.63% | inhibition of growth at 10 µM (KM12): 3.6% | inhibition of growth at 10 µM (HT-29): 42.2% | inhibition of growth at 10 µM (SNB-75): 1.53%

O=C(Cn1cncn1)Nc1ccc(-c2nc3ccccc3s2)cc1
inhibition of growth at 10 µM (NCI-H522): 12.5% | inhibition of growth at 10 µM (UACC-62): 4.77% | inhibition of growth at 10 µM (CCRF-CEM): -4.97% | inhibition of growth at 10 µM (SW-620): -6.34% | inhibition of growth at 10 µM (HCT-116): 4.58% | inhibition of growth at 10 µM (BT-549): 8.47% | inhibition of growth at 10 µM (SN12C): 4.85% | inhibition of growth at 10 µM (MOLT-4): 8.15% | inhibition of growth at 10 µM (ACHN): -10.5% | inhibition of growth at 10 µM (MDA-MB-435): -4.86% | inhibition of growth at 10 µM (T47D): 35.1% | inhibition of growth at 10 µM (NCI-H322M): -0.63% | inhibition of growth at 10 µM (SNB-19): 6.99% | inhibition of growth at 10 µM (SK-MEL-5): 13.3% | inhibition of growth at 10 µM (RXF 393): -25.3% | inhibition of growth at 10 µM (HOP-62): -2.28% | inhibition of growth at 10 µM (SK-MEL-28): -11% | inhibition of growth at 10 µM (RPMI-8226): 16.8% | inhibition of growth at 10 µM (MDA-MB-231): 3.55% | inhibition of growth at 10 µM (HL-60(TB)): -2.11% | inhibition of growth at 10 µM (NCI-H226): 25% | inhibition of growth at 10 µM (IGROV-1): 7.64% | inhibition of growth at 10 µM (NCI/ADR-RES): -1.6% | inhibition of growth at 10 µM (Malme-3M): -0.27% | inhibition of growth at 10 µM (DU-145): 5.46% | inhibition of growth at 10 µM (PC-3): 14.2% | inhibition of growth at 10 µM (HOP-92): 6.49% | inhibition of growth at 10 µM (M14): -11.2% | inhibition of growth at 10 µM (A549): 11.9% | inhibition of growth at 10 µM (MDA-MB-468): 130% | inhibition of growth at 10 µM (OVCAR-8): 5.43% | inhibition of growth at 10 µM (K562): 14.2% | inhibition of growth at 10 µM (HCT-15): -1.4% | inhibition of growth at 10 µM (CAKI-1): 6.2% | inhibition of growth at 10 µM (SK-OV-3): 0.14% | inhibition of growth at 10 µM (U-251): 10% | inhibition of growth at 10 µM (NCI-H460): 2.97% | inhibition of growth at 10 µM (UO-31): 23.1% | inhibition of growth at 10 µM (HCC 2998): 6.06% | inhibition of growth at 10 µM (TK-10): -6.22% | inhibition of growth at 10 µM (OVCAR-5): -15% | inhibition of growth at 10 µM (KM12): 1.84% | inhibition of growth at 10 µM (HT-29): -4.68% | inhibition of growth at 10 µM (SNB-75): 7.87%
